# Assay results as given in patent US11306360B2, “Assessment of cellular signaling pathway activity using linear combination(s) of target gene expressions” (KONINKLIJKE PHILIPS N.V., priority 2012, dated 2022).
# Assays:
# AR pathway = conditions: LNCaP stimulated with DHT for 4 hours, compared with 16 hours
# Text: FIG. 13 AR training results using fuzzy transformed expression data of GSE7868, “all probesets” as mentioned in Table 4 and “black and white” weights. The 1st and 2nd group of samples (from the left) has been used as negative and positive training samples, respectively.
# The expression data of these stimulation experiments are publically available in the GSE7868 dataset that has been fuzzy transformed as described herein. […] The 1st and 2nd group of samples from the left has been used as negative and positive training samples, respectively.
# ER pathway [1] = experiment: ER activity score validation in MCF7 breast cancer cell line (GSE9253); assay type: cell-based; conditions: MCF7 sample stimulated with E2, 3 hours
# Text: FIG. 17 ER validation results of a stimulation experiment with MCF7 cells (GSE9253, continuous data). The (pseudo-)linear model was trained using continuous expression data of GSE8597, the “most discriminative probesets” (underlined probesets in Table 2) and “log odds” weights (see training results in FIG. 10). It is clear from the MCF7 cells stimulated with E2, ER stimulating agent, that the defined threshold was set too high. The reason for this discrepancy could be a different stimulation regime (i.e. higher E2 concentration, but shorter stimulation time, etc.). Nevertheless, the difference of the calculated ER activity scores of the stimulated and non-stimulated cells is evident.
# In FIG. 17 the validation results of the trained ER (pseudo-)linear model is shown for two microarrays measured using a MCF7 breast cancer cell line sample, one stimulated with estradiol (E2) the other one with a negative control (EtOH), originating from the GSE9253 data set. The difference in ER activity score is evident from FIG. 17. […] This is the result of the threshold defining either an active or passive state was set too high for this particular experiment. […]
# ER pathway [2] = experiment: ER pathway activity score in MCF7 cells stimulated with or deprived of E2 (GSE11352); assay type: cell-based; conditions: MCF7, longer exposure times (12, 24, 48 hours) to ER stimulating agent
# Text: FIG. 12 ER pathway prediction in stimulation response data of MCF7 cells treated with ER stimulating agent (E2) or control for several treatment intervals (GSE11352, continuous data). The model is trained using continuous expression data of GSE8597, the “most discriminative probesets” (underlined probesets in Table 2) and “log odds” weights (see training results in FIG. 10).
# In another example, a publically available data set of MCF7 cell lines stimulated with or deprived of ER stimulating agent (E2) with expression levels measured at 12 hours, 24 hours and 48 hours after starting stimulation or deprivation (GSE11352) was used to calculate the ER activity scores using the trained ER (pseudo-)linear model as described herein. […] With the exception of the starvation of 48 hours, the predicted ER activity scores nicely correlates with the knowledge that prolonged stimulation result in higher ER activity and vice versa. Inversely, this example implies that the ER activity score can be used to monitor efficacy or inefficacy of stimulation or inhibition of ER activity treatments.
# ER pathway [3] = experiment: Predicted ER pathway activity in wild type MCF7 cell line (GSE21618); assay type: cell-based
# Method: (§1) The ER (pseudo-)linear model was trained using continuous expression data of GSE8597, the “most discriminative probesets” (underlined probesets in Table 2) and “log odds” weights (see training results in FIG. 10). Different stimulation regimes were applied, denoted in the different groups of samples, and the expression of mRNA was measured by microarray at 0, 1, 2, 3, 6, 12, 24, 48 hours, denoted by the consecutive samples in the groups.
# (§2) The (pseudo-)linear model of the ER pathway, constructed using a node for the transcription factor presence and a layer of probesets (Table 2) associated with the target genes of the ER pathway, analogous to FIG. 2 as described herein, and trained as described herein, was used to calculate the ER pathway activity score.
# (§3) With respect to FIG. 20, Tamoxifen is a drug currently used for the treatment of ER+ (estrogen receptor positive) breast cancer. It acts as a partial antagonist of the estrogen receptor inhibiting the uncontrolled cell proliferation which is thought to be induced by ER signaling. […] Many studies have been conducted to investigate this so-called Tamoxifen resistance. The publicly available GSE21618 data set is the result of one of such study and contains microarray data of Tamoxifen resistant and wildtype MCF7 cell lines under different treatment regimes. […]
# ER pathway [4] = experiment: Predicted ER pathway activity in Tamoxifen resistant MCF7 cell line (GSE21618); assay type: cell-based; conditions: Tamoxifen resistant cell line stimulated with E2 and treated with Tamoxifen (TamR.E2_Tam); 1, 2, 3, 6, 12, 24 and 48 h
# Method: as §1, §2, §3
smiles,measurement,setting,value
"C[C@]12CCC(=O)C[C@@H]1CC[C@@H]1[C@@H]2CC[C@]2(C)[C@@H](O)CC[C@@H]12 [DHT, Dihydrotestosterone]",AR activity,AR pathway,"demonstrates AR activity, albeit lower activity levels than the cells stimulated for 16 hours"
"C[C@]12CC[C@@H]3c4ccc(O)cc4CC[C@H]3[C@@H]1CC[C@@H]2O [E2, 17beta-estradiol]",ER activity score,ER pathway [1],slightly negative ER activity score
same,ER pathway activity score,ER pathway [2],increase for longer exposure times
same,ER activity predictions,ER pathway [3]; wild type MCF7 treated with 17beta-estradiol (wt1.E2),increasing ER positive activity predictions
CC/C(=C(\c1ccccc1)c1ccc(OCCN(C)C)cc1)c1ccccc1 [Tamoxifen],predicted ER pathway activity,ER pathway [4],ineffective
same,ER pathway activity score in time,ER pathway [3]; wild type MCF7 stimulated with E2 and treated with Tamoxifen (wt2.E2_Tam),decreasing ER pathway activity score in time
